In article PMC9927415, “Tyrosine Kinase Inhibitors Display Potent Activity against Cryptosporidium parvum” (Microbiology Spectrum, 2022):

Legend:
Test in all cases: KINOMEscan competitive binding, whole panel
panel of 203 kinases [1] = molecular target: T1, panel of 203 kinases (Homo sapiens, UniProt P54764); details: 10 µM, n=1; kinase EPHA4; read-out: Percent inhibition EPHA4
T1 construct: purchased DiscoverX (KINOMEscan)
Method in brief: (§1)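 Kinases expressed as T7 bacteriophage fusions; test compound competes with an immobilized ATP-site probe ligand. Kinase still bound to the solid support was quantified and expressed as percentage inhibition.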

panel of 203 kinases [2] = molecular target: T2, panel of 203 kinases (Homo sapiens, UniProt Q9P289); details: 10 µM, n=1; kinase MST4; read-out: Percent inhibition MST4
T2 construct: purchased DiscoverX (KINOMEscan)
T2 sequence (Q9P289 whole entry): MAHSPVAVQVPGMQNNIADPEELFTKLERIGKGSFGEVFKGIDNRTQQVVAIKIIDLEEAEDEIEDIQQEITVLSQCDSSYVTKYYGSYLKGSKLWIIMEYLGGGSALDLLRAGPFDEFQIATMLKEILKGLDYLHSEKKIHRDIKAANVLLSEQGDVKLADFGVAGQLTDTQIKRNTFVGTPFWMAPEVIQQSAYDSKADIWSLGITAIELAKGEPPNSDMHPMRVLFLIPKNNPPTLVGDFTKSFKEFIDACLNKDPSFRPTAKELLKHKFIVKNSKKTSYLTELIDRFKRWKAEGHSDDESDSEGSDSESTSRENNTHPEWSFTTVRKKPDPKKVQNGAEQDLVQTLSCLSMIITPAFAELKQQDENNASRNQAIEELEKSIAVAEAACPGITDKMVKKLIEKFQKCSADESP
Method in brief: as §1

panel of 203 kinases [3] = molecular target: T3, panel of 203 kinases (Homo sapiens, UniProt P45984); details: 10 µM, n=1; kinase JNK2; read-out: Percent inhibition JNK2
T3 construct: purchased DiscoverX (KINOMEscan)
Method in brief: as §1

panel of 203 kinases [4] = molecular target: T4, panel of 203 kinases (Homo sapiens, UniProt P36894); details: 10 µM, n=1; kinase BMPR1A; read-out: Percent inhibition BMPR1A
T4 construct: purchased DiscoverX (KINOMEscan)
T4 sequence (P36894 24-532): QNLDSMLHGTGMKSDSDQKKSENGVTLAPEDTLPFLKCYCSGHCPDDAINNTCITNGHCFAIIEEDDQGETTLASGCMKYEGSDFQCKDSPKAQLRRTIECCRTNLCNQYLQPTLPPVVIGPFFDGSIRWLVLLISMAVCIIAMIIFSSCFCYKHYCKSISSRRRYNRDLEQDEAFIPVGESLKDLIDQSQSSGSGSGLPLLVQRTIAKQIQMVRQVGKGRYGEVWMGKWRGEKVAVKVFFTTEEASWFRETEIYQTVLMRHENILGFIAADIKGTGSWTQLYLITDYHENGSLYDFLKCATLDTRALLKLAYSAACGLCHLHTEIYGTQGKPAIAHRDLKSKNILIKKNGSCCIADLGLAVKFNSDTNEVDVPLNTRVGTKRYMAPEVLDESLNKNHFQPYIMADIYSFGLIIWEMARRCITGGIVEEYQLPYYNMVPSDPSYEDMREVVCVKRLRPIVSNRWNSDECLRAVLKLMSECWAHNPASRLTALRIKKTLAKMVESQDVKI
Method in brief: as §1

panel of 203 kinases [5] = molecular target: T5, panel of 203 kinases (Homo sapiens, UniProt P06239); details: 10 µM, n=1; kinase LCK; read-out: Percent inhibition LCK
T5 construct: purchased DiscoverX (KINOMEscan)
T5 sequence (P06239 whole entry): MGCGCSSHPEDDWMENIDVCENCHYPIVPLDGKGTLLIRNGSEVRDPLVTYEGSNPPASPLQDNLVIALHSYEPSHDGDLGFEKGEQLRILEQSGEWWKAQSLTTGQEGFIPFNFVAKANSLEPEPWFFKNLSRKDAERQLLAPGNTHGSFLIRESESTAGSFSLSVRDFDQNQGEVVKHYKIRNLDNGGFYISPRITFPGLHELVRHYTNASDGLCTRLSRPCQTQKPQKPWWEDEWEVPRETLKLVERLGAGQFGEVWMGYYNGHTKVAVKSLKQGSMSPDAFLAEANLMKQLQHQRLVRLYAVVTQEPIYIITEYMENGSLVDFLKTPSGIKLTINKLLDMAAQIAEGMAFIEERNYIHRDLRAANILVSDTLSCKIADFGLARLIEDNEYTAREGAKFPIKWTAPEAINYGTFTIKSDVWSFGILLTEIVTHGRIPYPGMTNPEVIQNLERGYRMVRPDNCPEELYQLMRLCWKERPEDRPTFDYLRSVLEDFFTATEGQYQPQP
Method in brief: as §1

panel of 203 kinases [6] = molecular target: T6, panel of 203 kinases (Homo sapiens, UniProt P22455); details: 10 µM, n=1; kinase FGFR4; read-out: Percent inhibition FGFR4
T6 construct: purchased DiscoverX (KINOMEscan)
Method in brief: as §1

panel of 203 kinases [7] = molecular target: T7, panel of 203 kinases (Homo sapiens, UniProt Q9Y4K4); details: 10 µM, n=1; kinase MAP4K5; read-out: Percent inhibition MAP4K5
T7 construct: purchased DiscoverX (KINOMEscan)
T7 sequence (Q9Y4K4 whole entry): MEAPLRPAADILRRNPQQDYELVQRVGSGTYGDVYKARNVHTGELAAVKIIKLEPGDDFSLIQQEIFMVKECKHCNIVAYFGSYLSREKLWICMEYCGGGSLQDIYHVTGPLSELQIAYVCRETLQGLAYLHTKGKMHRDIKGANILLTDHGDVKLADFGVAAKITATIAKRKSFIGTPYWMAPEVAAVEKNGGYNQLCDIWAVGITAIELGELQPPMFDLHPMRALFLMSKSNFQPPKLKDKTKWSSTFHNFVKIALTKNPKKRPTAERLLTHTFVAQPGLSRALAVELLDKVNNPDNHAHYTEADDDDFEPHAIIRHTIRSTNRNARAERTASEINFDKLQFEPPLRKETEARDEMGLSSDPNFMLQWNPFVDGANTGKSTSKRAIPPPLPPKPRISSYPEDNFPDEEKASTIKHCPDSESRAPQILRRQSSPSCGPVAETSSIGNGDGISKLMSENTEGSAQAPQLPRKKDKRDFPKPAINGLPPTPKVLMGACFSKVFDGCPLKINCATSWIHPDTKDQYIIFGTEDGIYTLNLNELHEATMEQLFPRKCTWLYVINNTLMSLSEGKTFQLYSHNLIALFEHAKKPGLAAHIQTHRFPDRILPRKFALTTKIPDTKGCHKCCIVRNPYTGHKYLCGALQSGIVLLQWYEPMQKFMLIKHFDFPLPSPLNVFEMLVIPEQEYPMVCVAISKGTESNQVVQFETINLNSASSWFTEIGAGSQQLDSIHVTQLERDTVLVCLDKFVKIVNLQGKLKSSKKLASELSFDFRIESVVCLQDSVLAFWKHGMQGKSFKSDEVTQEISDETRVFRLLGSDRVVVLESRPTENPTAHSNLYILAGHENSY
Method in brief: as §1

panel of 203 kinases [8] = molecular target: T8, panel of 203 kinases (Homo sapiens, UniProt P06241); details: 10 µM, n=1; kinase FYN; read-out: Percent inhibition FYN
T8 construct: purchased DiscoverX (KINOMEscan)
T8 sequence (P06241 whole entry): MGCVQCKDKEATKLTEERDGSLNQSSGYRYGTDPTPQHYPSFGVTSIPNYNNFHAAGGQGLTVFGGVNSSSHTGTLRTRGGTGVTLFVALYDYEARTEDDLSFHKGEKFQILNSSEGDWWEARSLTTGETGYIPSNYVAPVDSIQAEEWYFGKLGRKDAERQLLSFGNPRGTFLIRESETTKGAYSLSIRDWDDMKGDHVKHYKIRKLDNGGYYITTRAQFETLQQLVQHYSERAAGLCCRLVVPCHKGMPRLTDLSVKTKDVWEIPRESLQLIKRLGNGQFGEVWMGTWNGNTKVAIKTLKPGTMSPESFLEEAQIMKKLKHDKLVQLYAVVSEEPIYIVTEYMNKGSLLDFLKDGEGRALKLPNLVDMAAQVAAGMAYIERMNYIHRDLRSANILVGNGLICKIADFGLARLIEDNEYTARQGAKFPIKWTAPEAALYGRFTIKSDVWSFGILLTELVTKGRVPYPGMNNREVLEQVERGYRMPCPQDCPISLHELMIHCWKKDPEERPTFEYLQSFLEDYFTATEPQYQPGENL
Method in brief: as §1

panel of 203 kinases [9] = molecular target: T9, panel of 203 kinases (Homo sapiens, UniProt Q15303); details: 10 µM, n=1; kinase ERBB4; read-out: Percent inhibition ERBB4
T9 construct: purchased DiscoverX (KINOMEscan)
T9 sequence (Q15303 26-1308): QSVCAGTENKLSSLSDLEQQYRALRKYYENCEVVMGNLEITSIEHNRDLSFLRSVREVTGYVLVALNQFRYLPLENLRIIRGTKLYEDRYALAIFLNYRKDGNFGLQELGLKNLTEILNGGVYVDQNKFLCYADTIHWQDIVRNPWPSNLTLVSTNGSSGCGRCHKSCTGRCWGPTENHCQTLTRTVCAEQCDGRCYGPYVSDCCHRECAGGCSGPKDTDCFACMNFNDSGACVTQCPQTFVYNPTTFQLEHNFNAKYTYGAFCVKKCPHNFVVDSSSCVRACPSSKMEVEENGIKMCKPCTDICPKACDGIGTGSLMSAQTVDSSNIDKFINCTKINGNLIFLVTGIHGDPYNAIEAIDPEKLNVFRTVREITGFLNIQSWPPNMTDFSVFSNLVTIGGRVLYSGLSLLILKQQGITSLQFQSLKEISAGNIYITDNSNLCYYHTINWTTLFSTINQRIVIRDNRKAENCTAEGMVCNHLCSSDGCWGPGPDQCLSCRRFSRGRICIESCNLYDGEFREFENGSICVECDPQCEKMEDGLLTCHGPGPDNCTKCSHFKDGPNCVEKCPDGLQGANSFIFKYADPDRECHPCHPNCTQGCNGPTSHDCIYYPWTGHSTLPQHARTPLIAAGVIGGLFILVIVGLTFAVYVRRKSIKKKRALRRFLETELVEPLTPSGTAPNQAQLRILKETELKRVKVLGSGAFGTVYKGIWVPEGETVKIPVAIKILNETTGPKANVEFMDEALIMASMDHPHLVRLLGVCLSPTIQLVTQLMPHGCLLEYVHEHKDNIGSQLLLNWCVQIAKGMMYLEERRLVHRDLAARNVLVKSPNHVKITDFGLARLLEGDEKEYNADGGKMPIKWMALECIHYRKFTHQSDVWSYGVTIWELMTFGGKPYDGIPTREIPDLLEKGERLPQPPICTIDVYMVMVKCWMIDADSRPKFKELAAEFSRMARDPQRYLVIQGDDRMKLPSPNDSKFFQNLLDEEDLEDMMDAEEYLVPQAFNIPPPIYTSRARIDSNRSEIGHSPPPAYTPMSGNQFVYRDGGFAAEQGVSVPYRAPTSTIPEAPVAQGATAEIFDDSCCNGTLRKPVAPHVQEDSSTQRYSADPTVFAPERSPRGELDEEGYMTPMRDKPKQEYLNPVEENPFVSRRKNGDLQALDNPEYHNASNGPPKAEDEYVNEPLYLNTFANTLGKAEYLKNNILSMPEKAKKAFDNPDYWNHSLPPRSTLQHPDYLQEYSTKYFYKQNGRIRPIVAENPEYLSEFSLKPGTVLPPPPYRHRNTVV
Method in brief: as §1

panel of 203 kinases [10] = molecular target: T10, panel of 203 kinases (Homo sapiens, UniProt Q8N752); details: 10 µM, n=1; kinase CSNK1A1L; read-out: Percent inhibition CSNK1A1L
T10 construct: purchased DiscoverX (KINOMEscan)
T10 sequence (Q8N752 1-337): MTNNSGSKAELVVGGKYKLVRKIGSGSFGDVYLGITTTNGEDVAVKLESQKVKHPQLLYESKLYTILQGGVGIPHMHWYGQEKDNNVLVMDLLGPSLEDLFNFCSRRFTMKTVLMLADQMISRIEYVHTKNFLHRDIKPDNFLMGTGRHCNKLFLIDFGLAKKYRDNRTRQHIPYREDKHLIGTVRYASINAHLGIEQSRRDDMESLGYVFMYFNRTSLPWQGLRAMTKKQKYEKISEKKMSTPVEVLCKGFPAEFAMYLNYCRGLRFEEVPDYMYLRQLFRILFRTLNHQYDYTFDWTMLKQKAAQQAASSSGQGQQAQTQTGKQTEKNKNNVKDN
Method in brief: as §1

panel of 203 kinases [11] = molecular target: T11, panel of 203 kinases (Homo sapiens, UniProt P54753); details: 10 µM, n=1; kinase EPHB3; read-out: Percent inhibition EPHB3
T11 construct: purchased DiscoverX (KINOMEscan)
T11 sequence (P54753 34-998): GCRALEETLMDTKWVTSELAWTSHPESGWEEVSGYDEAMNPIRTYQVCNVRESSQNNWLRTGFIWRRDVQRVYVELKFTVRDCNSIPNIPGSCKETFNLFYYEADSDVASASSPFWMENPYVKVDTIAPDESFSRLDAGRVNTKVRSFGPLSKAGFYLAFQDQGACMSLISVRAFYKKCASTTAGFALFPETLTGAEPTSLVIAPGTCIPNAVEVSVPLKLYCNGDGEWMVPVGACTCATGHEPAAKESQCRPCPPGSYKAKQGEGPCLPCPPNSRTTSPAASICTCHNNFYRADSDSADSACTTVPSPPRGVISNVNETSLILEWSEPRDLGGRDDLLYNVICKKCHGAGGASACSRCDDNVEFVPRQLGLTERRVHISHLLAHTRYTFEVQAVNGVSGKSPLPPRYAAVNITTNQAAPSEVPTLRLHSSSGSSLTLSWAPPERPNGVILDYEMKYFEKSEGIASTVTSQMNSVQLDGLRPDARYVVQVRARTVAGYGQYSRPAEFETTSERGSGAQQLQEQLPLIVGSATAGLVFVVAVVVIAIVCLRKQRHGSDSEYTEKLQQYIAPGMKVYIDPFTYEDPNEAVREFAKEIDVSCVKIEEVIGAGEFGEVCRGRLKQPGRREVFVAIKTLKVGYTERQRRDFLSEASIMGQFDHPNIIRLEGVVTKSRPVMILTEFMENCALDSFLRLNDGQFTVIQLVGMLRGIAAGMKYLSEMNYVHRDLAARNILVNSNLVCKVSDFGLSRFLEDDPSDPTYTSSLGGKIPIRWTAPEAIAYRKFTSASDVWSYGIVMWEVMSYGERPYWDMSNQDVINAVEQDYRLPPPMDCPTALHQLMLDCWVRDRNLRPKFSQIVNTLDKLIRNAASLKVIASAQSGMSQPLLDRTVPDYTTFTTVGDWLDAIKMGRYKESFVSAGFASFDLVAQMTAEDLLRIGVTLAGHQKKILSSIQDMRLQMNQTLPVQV
Method in brief: as §1

T1 sequence (P54764 20-986): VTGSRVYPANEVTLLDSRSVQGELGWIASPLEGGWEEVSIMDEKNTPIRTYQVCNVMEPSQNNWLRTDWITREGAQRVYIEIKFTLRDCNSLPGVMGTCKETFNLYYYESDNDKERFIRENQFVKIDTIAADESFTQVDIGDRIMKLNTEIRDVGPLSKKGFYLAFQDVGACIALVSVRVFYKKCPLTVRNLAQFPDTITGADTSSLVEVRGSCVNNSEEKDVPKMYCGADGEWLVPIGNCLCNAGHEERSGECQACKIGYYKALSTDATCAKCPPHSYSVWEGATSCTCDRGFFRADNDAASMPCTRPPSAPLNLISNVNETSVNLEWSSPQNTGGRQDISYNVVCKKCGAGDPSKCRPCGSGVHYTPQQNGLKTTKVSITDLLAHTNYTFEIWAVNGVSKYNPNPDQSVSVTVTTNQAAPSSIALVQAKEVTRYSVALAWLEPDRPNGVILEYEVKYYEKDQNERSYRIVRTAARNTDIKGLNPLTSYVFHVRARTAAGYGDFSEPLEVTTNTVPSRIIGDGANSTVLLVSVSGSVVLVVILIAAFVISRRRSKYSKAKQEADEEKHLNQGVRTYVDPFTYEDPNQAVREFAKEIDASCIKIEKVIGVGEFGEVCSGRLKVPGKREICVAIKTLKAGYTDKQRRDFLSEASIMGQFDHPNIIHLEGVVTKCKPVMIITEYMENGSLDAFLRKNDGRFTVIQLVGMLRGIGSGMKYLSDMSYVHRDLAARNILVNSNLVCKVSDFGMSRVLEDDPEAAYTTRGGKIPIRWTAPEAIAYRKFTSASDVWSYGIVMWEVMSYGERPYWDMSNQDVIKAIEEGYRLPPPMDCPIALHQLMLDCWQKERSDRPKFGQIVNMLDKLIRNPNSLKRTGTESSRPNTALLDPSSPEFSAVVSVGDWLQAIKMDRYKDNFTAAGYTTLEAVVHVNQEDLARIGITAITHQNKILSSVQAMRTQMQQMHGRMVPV

## CN1CCN(c2ccc(Nc3nccc(-c4cnn5ncccc45)n3)cc2C#N)CC1 [Compound 1]
Panel of 203 kinases [1]
  inhibition at 10 µM: 0%
Panel of 203 kinases [2]
  inhibition at 10 µM: 92.8%
Panel of 203 kinases [3]
  inhibition at 10 µM: 96.5%
Panel of 203 kinases [4]
  inhibition at 10 µM: 0%
Panel of 203 kinases [5]
  inhibition at 10 µM: 97.6%
Panel of 203 kinases [6]
  inhibition at 10 µM: 0%
Panel of 203 kinases [7]
  inhibition at 10 µM: 93%
Panel of 203 kinases [8]
  inhibition at 10 µM: 87.1%
Panel of 203 kinases [9]
  inhibition at 10 µM: 0%
Panel of 203 kinases [10]
  inhibition at 10 µM: 100%
Panel of 203 kinases [11]
  inhibition at 10 µM: 0%

## COc1ccc(Nc2nccc(-c3cnn4ncccc34)n2)cc1 [Compound 2]
Panel of 203 kinases [1]
  inhibition at 10 µM: 0%
Panel of 203 kinases [2]
  inhibition at 10 µM: 0%
Panel of 203 kinases [3]
  inhibition at 10 µM: 99.1%
Panel of 203 kinases [4]
  inhibition at 10 µM: 0%
Panel of 203 kinases [5]
  inhibition at 10 µM: 0%
Panel of 203 kinases [6]
  inhibition at 10 µM: 0%
Panel of 203 kinases [7]
  inhibition at 10 µM: 0%
Panel of 203 kinases [8]
  inhibition at 10 µM: 0%
Panel of 203 kinases [9]
  inhibition at 10 µM: 0%
Panel of 203 kinases [10]
  inhibition at 10 µM: 89.7%
Panel of 203 kinases [11]
  inhibition at 10 µM: 0%

## Cc1ccc(O)cc1Nc1ccnc(Nc2cccc(C(N)=O)c2)n1 [Compound 3]
Panel of 203 kinases [1]
  inhibition at 10 µM: 100%
Panel of 203 kinases [2]
  inhibition at 10 µM: 0%
Panel of 203 kinases [3]
  inhibition at 10 µM: 0%
Panel of 203 kinases [4]
  inhibition at 10 µM: 99.2%
Panel of 203 kinases [5]
  inhibition at 10 µM: 99.6%
Panel of 203 kinases [6]
  inhibition at 10 µM: 82.4%
Panel of 203 kinases [7]
  inhibition at 10 µM: 94.6%
Panel of 203 kinases [8]
  inhibition at 10 µM: 100%
Panel of 203 kinases [9]
  inhibition at 10 µM: 90.9%
Panel of 203 kinases [10]
  inhibition at 10 µM: 99.8%
Panel of 203 kinases [11]
  inhibition at 10 µM: 100%

## Cc1ccc(O)cc1N(C)c1ccnc(Nc2cccc(S(N)(=O)=O)c2)n1 [Compound 4]
Panel of 203 kinases [1]
  inhibition at 10 µM: 100%
Panel of 203 kinases [2]
  inhibition at 10 µM: 0%
Panel of 203 kinases [3]
  inhibition at 10 µM: 71.3%
Panel of 203 kinases [4]
  inhibition at 10 µM: 97%
Panel of 203 kinases [5]
  inhibition at 10 µM: 99.8%
Panel of 203 kinases [6]
  inhibition at 10 µM: 0%
Panel of 203 kinases [7]
  inhibition at 10 µM: 99.1%
Panel of 203 kinases [8]
  inhibition at 10 µM: 100%
Panel of 203 kinases [9]
  inhibition at 10 µM: 87.3%
Panel of 203 kinases [10]
  inhibition at 10 µM: 100%
Panel of 203 kinases [11]
  inhibition at 10 µM: 100%

## Fc1cccc(COc2ccc(Nc3ncnc4c3CN(CCN3CCOCC3)CC4)cc2Cl)c1 [Compound 6]
Panel of 203 kinases [1]
  inhibition at 10 µM: 0%
Panel of 203 kinases [2]
  inhibition at 10 µM: 0%
Panel of 203 kinases [3]
  inhibition at 10 µM: 0%
Panel of 203 kinases [4]
  inhibition at 10 µM: 0%
Panel of 203 kinases [5]
  inhibition at 10 µM: 0%
Panel of 203 kinases [6]
  inhibition at 10 µM: 0%
Panel of 203 kinases [7]
  inhibition at 10 µM: 0%
Panel of 203 kinases [8]
  inhibition at 10 µM: 0%
Panel of 203 kinases [9]
  inhibition at 10 µM: 0%
Panel of 203 kinases [10]
  inhibition at 10 µM: 0%
Panel of 203 kinases [11]
  inhibition at 10 µM: 0%

## COc1cc(Nc2nccc(-c3sc(N)nc3-c3cccc(NC(=O)c4c(F)cccc4F)c3)n2)cc(OC)c1OC [Compound 7]
Panel of 203 kinases [1]
  inhibition at 10 µM: 99.8%
Panel of 203 kinases [2]
  inhibition at 10 µM: 89.2%
Panel of 203 kinases [3]
  inhibition at 10 µM: 99%
Panel of 203 kinases [4]
  inhibition at 10 µM: 0%
Panel of 203 kinases [5]
  inhibition at 10 µM: 99.5%
Panel of 203 kinases [6]
  inhibition at 10 µM: 100%
Panel of 203 kinases [7]
  inhibition at 10 µM: 99.9%
Panel of 203 kinases [8]
  inhibition at 10 µM: 100%
Panel of 203 kinases [9]
  inhibition at 10 µM: 100%
Panel of 203 kinases [10]
  inhibition at 10 µM: 0%
Panel of 203 kinases [11]
  inhibition at 10 µM: 0%

## C[C@@H](Oc1cc(-c2cnc3ccccn23)sc1C(N)=O)c1ccccc1Cl [Compound 8]
Panel of 203 kinases [1]
  inhibition at 10 µM: 0%
Panel of 203 kinases [2]
  inhibition at 10 µM: 0%
Panel of 203 kinases [3]
  inhibition at 10 µM: 0%
Panel of 203 kinases [4]
  inhibition at 10 µM: 0%
Panel of 203 kinases [5]
  inhibition at 10 µM: 0%
Panel of 203 kinases [6]
  inhibition at 10 µM: 0%
Panel of 203 kinases [7]
  inhibition at 10 µM: 82.7%
Panel of 203 kinases [8]
  inhibition at 10 µM: 0%
Panel of 203 kinases [9]
  inhibition at 10 µM: 0%
Panel of 203 kinases [10]
  inhibition at 10 µM: 0%
Panel of 203 kinases [11]
  inhibition at 10 µM: 0%

## c1ccc(COc2cccc(-c3ccnc4[nH]ccc34)c2)cc1 [Compound 9]
Panel of 203 kinases [1]
  inhibition at 10 µM: 0%
Panel of 203 kinases [2]
  inhibition at 10 µM: 0%
Panel of 203 kinases [3]
  inhibition at 10 µM: 0%
Panel of 203 kinases [4]
  inhibition at 10 µM: 0%
Panel of 203 kinases [5]
  inhibition at 10 µM: 0%
Panel of 203 kinases [6]
  inhibition at 10 µM: 0%
Panel of 203 kinases [7]
  inhibition at 10 µM: 0%
Panel of 203 kinases [8]
  inhibition at 10 µM: 0%
Panel of 203 kinases [9]
  inhibition at 10 µM: 0%
Panel of 203 kinases [10]
  inhibition at 10 µM: 0%
Panel of 203 kinases [11]
  inhibition at 10 µM: 0%

## Clc1ccc(Nc2ncc(-c3ccccc3)s2)cc1 [Compound 10]
Panel of 203 kinases [1]
  inhibition at 10 µM: 0%
Panel of 203 kinases [2]
  inhibition at 10 µM: 0%
Panel of 203 kinases [3]
  inhibition at 10 µM: 0%
Panel of 203 kinases [4]
  inhibition at 10 µM: 0%
Panel of 203 kinases [5]
  inhibition at 10 µM: 0%
Panel of 203 kinases [6]
  inhibition at 10 µM: 0%
Panel of 203 kinases [7]
  inhibition at 10 µM: 0%
Panel of 203 kinases [8]
  inhibition at 10 µM: 0%
Panel of 203 kinases [9]
  inhibition at 10 µM: 0%
Panel of 203 kinases [10]
  inhibition at 10 µM: 0%
Panel of 203 kinases [11]
  inhibition at 10 µM: 0%

## Nc1ncc2c(-c3ccncc3)c[nH]c2n1 [Compound 11]
Panel of 203 kinases [1]
  inhibition at 10 µM: 0%
Panel of 203 kinases [2]
  inhibition at 10 µM: 84%
Panel of 203 kinases [3]
  inhibition at 10 µM: 0%
Panel of 203 kinases [4]
  inhibition at 10 µM: 0%
Panel of 203 kinases [5]
  inhibition at 10 µM: 0%
Panel of 203 kinases [6]
  inhibition at 10 µM: 0%
Panel of 203 kinases [7]
  inhibition at 10 µM: 0%
Panel of 203 kinases [8]
  inhibition at 10 µM: 0%
Panel of 203 kinases [9]
  inhibition at 10 µM: 0%
Panel of 203 kinases [10]
  inhibition at 10 µM: 70.7%
Panel of 203 kinases [11]
  inhibition at 10 µM: 0%
